This is an account of results in patent publication US7511133B2, “Adenosine A3 receptor agonists” (King Pharmaceuticals Research and Development, Inc., priority 2003, dated 2009).

One data set addresses T1, human A2A receptors (Homo sapiens, UniProt P29274).
T1 construct: expressed in transfected cells; host or cells: CHO cells
In words: [^3H] SCH58261 binding to human A2A receptors expressed in CHO cells (antagonist radioligand). Here is the method: (§1) Binding assay methodology for the human data with antagonist radioligands. […] Arch. Pharmacol. 357: 1-9, (1998). The cells were grown adherently and maintained in Dulbecco's Modified Eagles Medium with nutrient mixture F12 (DMEM/F12) without nucleosides, containing 10% fetal calf serum, penicillin (100 U/ml), streptomycin (100 μg/ml), L-glutamine (2 mM) and Geneticin (G418, 0.2 mg/ml) at 37° C. in 5% CO2/95% air. Cells were split 2 or 3 times weekly at a ratio between 1:5 and 1:20. For membrane preparation the culture medium was removed and the cells were washed with PBS and scraped off T75 flasks in ice-cold hypotonic buffer (5 mM Tris HCl, 2 mM EDTA, pH 7.4). The cell suspension was homogenized with Polytron and the homogenate was spun for 10 min at 1,000×g. The supernatant was then centrifuged for 30 min at 100,000×g. The membrane pellet was resuspended in 50 mM Tris HCl buffer pH 7.4 (for A3 adenosine receptors: 50 mM Tris HCl, 10 mM MgCl2, 1 mM EDTA) and incubated with 3 UI/ml of Adenosine deaminase for 30 min at 37° C. Then the suspension was frozen at −80° C. HEK 293 cells transfected with the human recombinant A2B adenosine receptor were obtained from Receptor Biology, Inc. (Beltsville, Md., USA).
Binding of [^3H]-SCH 58261 to CHO cells transfected with the human recombinant A2A adenosine receptors (50 μg of protein/assay) was performed using 0.2 ml 50 mM Tris HCl buffer, 10 mM MgCl2 pH 7.4 and at least 6-8 different concentrations of antagonists studied for an incubation time of 30 min at 25° C.

The next data set addresses T2, human hA2B receptors (Homo sapiens, UniProt P29275).
T2 construct: host or cells: HEK 293 cells
T2 sequence (P29275 1-332): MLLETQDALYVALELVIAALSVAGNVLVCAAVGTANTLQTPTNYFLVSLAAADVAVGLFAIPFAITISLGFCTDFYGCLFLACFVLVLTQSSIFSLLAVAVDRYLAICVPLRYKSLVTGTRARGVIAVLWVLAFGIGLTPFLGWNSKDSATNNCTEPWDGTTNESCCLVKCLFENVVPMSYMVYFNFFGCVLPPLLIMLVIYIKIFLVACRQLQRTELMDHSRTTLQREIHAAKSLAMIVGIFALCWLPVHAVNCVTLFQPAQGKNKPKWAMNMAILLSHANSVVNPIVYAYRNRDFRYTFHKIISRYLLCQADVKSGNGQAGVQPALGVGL
The experiment in a line: [^3H] DPCPX binding to human hA2B receptors expressed in HEK293 cells (antagonist radioligand). Here is the method: as §1
Competition experiments of [^3H]-DPCPX to HEK-293 cells transfected with the human recombinant A^2B adenosine receptor were performed for 60 min at 25° C. in 0.1 ml of 50 mM Tris HCl buffer, 10 mM MgCl2, 1 mM EDTA, 0.1 mM benzamidine pH 7.4, 2 IU/ml adenosine deaminase containing 34 nM [^3H]-DPCPX, diluted membranes (20 μg of protein/assay) and at least 6-8 different concentrations of selected compounds.

In data set [1] the target is T3, human A1 adenosine receptors (Homo sapiens, UniProt P30542).
T3 sequence (P30542 1-326): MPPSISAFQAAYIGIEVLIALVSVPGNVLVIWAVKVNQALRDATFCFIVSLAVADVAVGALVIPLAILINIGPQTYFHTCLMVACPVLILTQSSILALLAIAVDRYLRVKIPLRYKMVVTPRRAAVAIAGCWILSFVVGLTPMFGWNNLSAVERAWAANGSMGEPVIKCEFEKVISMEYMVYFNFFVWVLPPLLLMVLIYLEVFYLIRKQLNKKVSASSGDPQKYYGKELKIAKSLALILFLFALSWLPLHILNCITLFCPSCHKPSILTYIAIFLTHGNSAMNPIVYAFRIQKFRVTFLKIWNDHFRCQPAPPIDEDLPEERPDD
In words: Displacement of [^3H]CHA binding, human A1 adenosine receptors in CHO cells (agonist radioligand).

In a further data set the target is T4, human A1 receptors (Homo sapiens, UniProt P30542).
T4 construct: expressed in transfected cells; host or cells: CHO cells
T4 sequence (P30542 1-326): T3 sequence (P30542 1-326)
The experiment in a line: [^3H] DPCPX binding to human A1 receptors expressed in CHO cells (antagonist radioligand). Here is the method:
as §1, with “Pharmacol. 357: 1-9, (1998).” left out
Displacement experiments were performed for 120 min at 25° C. in 0.2 ml of 50 mM Tris HCl buffer pH 7.4 containing 1 nM [3H]-DPCPX, diluted membranes (50 μg of protein/assay) and at least 6-8 different concentrations of antagonists studied. Non-specific binding was determined in the presence of 10 μM of CHA and this was always ≦10% of the total binding.

For data set [2], the target named is T5, human A2A adenosine receptors (Homo sapiens, UniProt P29274).
T5 construct: expressed in transfected cells; host or cells: CHO cells
T5 sequence (P29274 whole entry): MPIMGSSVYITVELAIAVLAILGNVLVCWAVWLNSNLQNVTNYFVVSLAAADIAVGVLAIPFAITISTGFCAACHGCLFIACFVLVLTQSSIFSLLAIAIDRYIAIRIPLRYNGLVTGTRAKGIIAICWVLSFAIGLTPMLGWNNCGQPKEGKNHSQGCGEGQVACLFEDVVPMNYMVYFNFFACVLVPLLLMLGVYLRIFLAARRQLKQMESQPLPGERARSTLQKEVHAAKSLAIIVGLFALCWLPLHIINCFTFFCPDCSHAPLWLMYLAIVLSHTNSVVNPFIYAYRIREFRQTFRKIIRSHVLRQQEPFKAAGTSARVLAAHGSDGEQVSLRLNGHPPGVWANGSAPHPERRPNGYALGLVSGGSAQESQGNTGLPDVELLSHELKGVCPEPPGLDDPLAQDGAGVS
The experiment in a line: Displacement of [^3H]CGS21680 binding, human A2A adenosine receptors in CHO cells (agonist radioligand).

Data set [3] deals with T6, human A3 adenosine receptors (Homo sapiens, UniProt P0DMS8).
T6 sequence (P0DMS8 1-318): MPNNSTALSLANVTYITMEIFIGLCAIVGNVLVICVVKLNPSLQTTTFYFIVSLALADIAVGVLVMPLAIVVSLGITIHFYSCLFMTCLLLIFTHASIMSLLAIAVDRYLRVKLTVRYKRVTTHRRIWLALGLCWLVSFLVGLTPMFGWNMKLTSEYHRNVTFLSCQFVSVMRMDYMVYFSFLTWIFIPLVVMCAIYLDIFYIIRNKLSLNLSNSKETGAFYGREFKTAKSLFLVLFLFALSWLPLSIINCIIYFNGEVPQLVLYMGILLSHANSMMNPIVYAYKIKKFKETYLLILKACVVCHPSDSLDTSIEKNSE

For another data set, the target named is T7, human A3 receptors (Homo sapiens, UniProt P0DMS8).
T7 construct: expressed in transfected cells; host or cells: CHO cells
T7 sequence (P0DMS8 1-318): T6 sequence (P0DMS8 1-318)
In words: [^3H] MRE3008F20 binding to human A3 receptors expressed in CHO cells (antagonist radioligand). How it is done:
as §1
Binding of [^3H]-MRE 3008F20 to CHO cells transfected with the human recombinant A3 adenosine receptors was performed according to Varani et al., 2000. Competition experiments were carried out in duplicate in a final volume of […] in test tubes containing 1 nM [^3H]-MRE 3008F20, 50 mM Tris HCl buffer, 10 mM MgCl2, 1 mM EDTA pH 7.4 and 100 μl of diluted membranes (50 μg of protein/assay) and at least 8-10 different concentrations of examined antagonists. Incubation time was 120 min at 4° C., according to the results of previous time-course experiments.

Setting [4] is: human A2A, CHO cells, antagonist radioligand, read-out: [^3H] SCH58261 binding to human A2A receptors expressed in CHO cells Ki.
Where [5] appears, read: human A2B, HEK293 cells, antagonist radioligand, read-out: [^3H] DPCPX binding to human hA2B receptors expressed in HEK293 cells Ki.
[6] abbreviates: human A1, CHO cells, antagonist radioligand, read-out: [^3H] DPCPX binding to human A1 receptors expressed in CHO cells Ki.
Where [7] appears, read: human A2A, CHO cells, [^3H]CGS21680, read-out: Ki(A2A). Displacement of [^3H]CGS21680 binding to human A2A adenosine receptors exp. in CHO cells.
[8] abbreviates: human A3, CHO cells, antagonist radioligand, read-out: [^3H] MRE3008F20 binding to human A3 receptors expressed in CHO cells Ki.

Structures are written as SMILES. pKi: −log10 of the molar value. Read-outs that look alike come from different tables or passages of the source. Some results are limits rather than exact numbers.

T1 sequence (P29274 whole entry): as the sequence (P29274 whole entry) above

A word on the melting point: it is the temperature, or range, at which the solid turns liquid. As usually defined, the pKi is the Ki on a negative log10 scale, so that one unit is a factor of ten. The compound `CCNC(=O)[C@H]1O[C@@H](n2cnc3c(NC(=O)Nc4ccc(S(=O)(=O)NC5CCCCC5)cc4)ncnc32)[C@H](O)[C@@H]1O` [Compound 94, 1-Deoxy-1-[6-[[[[4-[N-(cyclohexyl)aminosulfonyl]phenyl]-amino]carbonyl]amino]-9H-purin-9-yl]-N-ethyl-β-D-ribofuranuronamide] had a melting point of 179 to 183 °C. Also, on human A2A receptors (setting [4]), the pKi was less than 6.00. On human hA2B receptors (setting [5]), the negative-log Ki (pKi) is less than 6.00. In data set [1], the pKi was 6.46. In addition, the pKi at human A1 receptors (setting [6]) is less than 6.00. The pKi in data set [2] (setting [7]) is less than 6.00.

`C=CCN(C)S(=O)(=O)c1ccc(NC(=O)Nc2ncnc3c2ncn3[C@@H]2O[C@H](C(=O)NCC)[C@@H](O)[C@H]2O)cc1` [Compound 96, 1-Deoxy-1-[6-[[[[4-[N-(allyl)-N-(methyl)amino-sulfonyl]phenyl]amino]carbonyl]amino]-9H-purin-9-yl]-N-ethyl-β-D-ribofuranuronamide] displayed a melting point of 181 to 185 °C. Moreover, the pKi at human A2A receptors (setting [4]) was less than 6.00. Also, the pKi on human hA2B receptors (setting [5]) is less than 6.00. The compound also gave a pKi in data set [3] of 8.00. For the same compound, at human A3 receptors (setting [8]), the pKi is 7.30. In addition, the pKi in data set [2] (setting [7]) was less than 6.00.

For the compound `CCNC(=O)[C@H]1O[C@@H](n2cnc3c(NC(=O)Nc4ccc(S(=O)(=O)NCc5ccccc5)cc4)ncnc32)[C@H](O)[C@@H]1O` [Compound 86, 1-Deoxy-1-[6-[[[[4-[N-(benzyl)aminosulfonyl]phenyl]amino]-carbonyl]amino]-9H-purin-9-yl]-N-ethyl-β-D-ribofuranuronamide], the negative logarithm of the Ki (pKi) was less than 6.00 on human A2A receptors (setting [4]); less than 6.00 at human hA2B receptors (setting [5]); 6.52 in data set [1]; less than 6.00 on human A1 receptors (setting [6]); less than 6.00 in data set [2] (setting [7]).

Consider `CCNC(=O)[C@H]1O[C@@H](n2cnc3c(NC(=O)Nc4ccc(S(=O)(=O)N(CCCl)CCCl)cc4)ncnc32)[C@H](O)[C@@H]1O` [Compound 91, 1-Deoxy-1-[6-[[[[4-[N,N-bis(2-chloroethyl)aminosulfonyl]phenyl]-amino]carbonyl]amino]-9H-purin-9-yl]-N-ethyl-β-D-ribofuranuronamide], for which the pKi was less than 6.00 at human A2A receptors; less than 6.00 at human hA2B receptors; 7.64 in data set [3]; 6.92 on human A3 receptors; 6.14 in data set [1]; less than 6.00 on human A1 receptors. Besides, in data set [2], the pKi was less than 6.00.

Take `CCNC(=O)[C@H]1O[C@@H](n2cnc3c(NC(=O)Nc4ccc(S(=O)(=O)N5CCCCC5)cc4)ncnc32)[C@H](O)[C@@H]1O` [Compound 83, 1-Deoxy-1-[6-[[[[4-[(piperidin-1-yl)sulfonyl]phenyl]amino]carbonyl]amino]-9H-purin-9-yl]-N-ethyl-β-D-ribofuranuronamide]: the melting point lay in the range of 176 to 178 °C. The pKi on human A2A receptors (setting [4]) is less than 6.00. For the same compound, the pKi on human hA2B receptors (setting [5]) was less than 6.00. Besides, in data set [2] (setting [7]), the pKi was less than 6.00.

In the case of `CCNC(=O)[C@H]1O[C@@H](n2cnc3c(NC(=O)Nc4ccc(S(=O)(=O)Nc5ccc(OC)cc5)cc4)ncnc32)[C@H](O)[C@@H]1O` [Compound 88, 1-Deoxy-1-[6-[[[[4-[N-(4-methoxyphenyl)aminosulfonyl]phenyl]-amino]carbo-nyl]amino]-9H-purin-9-yl]-N-ethyl-β-D-ribofuranuronamide], the pKi on human A2A receptors (setting [4]) is less than 6.00; on human hA2B receptors (setting [5]) it was less than 6.00; in data set [1], 6.55; at human A1 receptors (setting [6]) it was less than 6.00; in data set [2] (setting [7]), less than 6.00.

In turn, `CCNC(=O)[C@H]1O[C@@H](n2cnc3c(NC(=O)Nc4ccc(S(=O)(=O)N5CCCC5)cc4)ncnc32)[C@H](O)[C@@H]1O` [Compound 90, 1-Deoxy-1-[6-[[[[4-[(pyrrolidin-1-yl)sulfonyl]phenyl]amino]carbonyl]amino]-9H-purin-9-yl]-N-ethyl-β-D-ribofuranuronamide] yielded a melting point of 204 to 205 °C. Besides, the pKi on human A2A receptors (setting [4]) is less than 6.00. Further, the pKi on human hA2B receptors (setting [5]) is less than 6.00. The pKi in data set [3] is 7.66. Further, at human A3 receptors (setting [8]), the pKi was 7.00. Also, the pKi in data set [2] (setting [7]) is less than 6.00.
